Biological target: human PDE4D catalytic domain (Homo sapiens (Human), UniProt Q08499)
Assay: PDE4 Assay (TR-FRET, FAM-cAMP cleavage)
Format: biochemical
Details: human PDE4D catalytic domain (UniProt Q08499 [S380-L740]); 50% inhibition of substrate cleavage; read-out: PDE4 IC50 range
Summary of the method: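 Readout is Tb-to-FAM time-resolved FRET after nanoparticle capture of AMP, the product of cleaving a cAMP/FAM-cAMP mixture by PDE4D catalytic domain (S380-L740) in the presence of titrated compound. Values are IC50 ranges in nM: concentration halving substrate cleavage relative to controls.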

human PDE4D catalytic domain, sequence (Q08499 380-740): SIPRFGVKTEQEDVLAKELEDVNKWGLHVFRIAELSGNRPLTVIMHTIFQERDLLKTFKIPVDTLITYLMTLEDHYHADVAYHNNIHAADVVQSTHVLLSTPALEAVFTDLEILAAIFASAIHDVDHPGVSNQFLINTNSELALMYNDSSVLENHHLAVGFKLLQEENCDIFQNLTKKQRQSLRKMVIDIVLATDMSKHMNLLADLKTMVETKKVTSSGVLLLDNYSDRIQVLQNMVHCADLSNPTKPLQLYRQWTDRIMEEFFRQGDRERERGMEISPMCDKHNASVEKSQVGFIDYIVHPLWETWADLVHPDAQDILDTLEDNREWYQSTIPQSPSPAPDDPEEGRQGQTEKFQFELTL

| Structure (SMILES) | IC50 [nM] |
| --- | --- |
| CCn1nc(CCCOC(=O)c2cccc(S(=O)(=O)CC)c2)c2c1C(=O)NCC1(CCOCC1)C2 [Example 76, 3-(1-ethyl-8-oxo-spiro[6,7-dihydro-4H-pyrazolo[3,4-c]azepine-5,4′-tetrahydro-pyran]-3-yl)propyl 3-ethylsulfonylbenzoate] | < 100 |
| CCn1nc(CCCOC(=O)c2ccc(S(=O)(=O)CC)cc2)c2c1C(=O)NCC1(CCOCC1)C2 [Example 77, 3-(1-ethyl-8-oxo-spiro[6,7-dihydro-4H-pyrazolo[3,4-c]azepine-5,4′-tetrahydro-pyran]-3-yl)propyl 4-ethylsulfonylbenzoate] | < 100 |
| CCn1nc(CCCOC(=O)c2cccc(S(=O)(=O)NC)c2)c2c1C(=O)NCC1(CCOCC1)C2 [Example 78, 3-(1-ethyl-8-oxo-spiro[6,7-dihydro-4H-pyrazolo[3,4-c]azepine-5,4′-tetrahydro-pyran]-3-yl)propyl 3-(methylsulfamoyl)benzoate] | < 100 |
| CCn1nc(CCCOC(=O)c2ccc(OC)c(C(F)(F)F)c2)c2c1C(=O)NCC1(CCOCC1)C2 [Example 79, 3-(1-ethyl-8-oxo-spiro[6,7-dihydro-4H-pyrazolo[3,4-c]azepine-5,4′-tetrahydro-pyran]-3-yl)propyl 4-methoxy-3-(trifluoromethyl)benzoate] | < 100 |
| CCn1nc(CCCOC(=O)c2cc(OC)ccc2C(F)(F)F)c2c1C(=O)NCC1(CCOCC1)C2 [Example 80, 3-(1-ethyl-8-oxo-spiro[6,7-dihydro-4H-pyrazolo[3,4-c]azepine-5,4′-tetrahydro-pyran]-3-yl)propyl 5-methoxy-2-(trifluoromethyl)benzoate] | < 100 |
| CCn1nc(CCCOC(=O)c2ccc(OC)cc2C(F)(F)F)c2c1C(=O)NCC1(CCOCC1)C2 [Example 81, 3-(1-ethyl-8-oxo-spiro[6,7-dihydro-4H-pyrazolo[3,4-c]azepine-5,4′-tetrahydro-pyran]-3-yl)propyl 4-methoxy-2-(trifluoromethyl)benzoate] | < 100 |
| CCn1nc(CCCOC(=O)c2cc(OC)cc(C(F)(F)F)c2)c2c1C(=O)NCC1(CCOCC1)C2 [Example 82, 3-(1-ethyl-8-oxo-spiro[6,7-dihydro-4H-pyrazolo[3,4-c]azepine-5,4′-tetrahydropyran]-3-yl)propyl 3-methoxy-5-(trifluoromethyl)benzoate] | < 100 |
| CCn1nc(CCCOC(=O)c2ccc(C(F)(F)F)c(OC)c2)c2c1C(=O)NCC1(CCOCC1)C2 [Example 83, 3-(1-ethyl-8-oxo-spiro[6,7-dihydro-4H-pyrazolo[3,4-c]azepine-5,4′-tetrahydro-pyran]-3-yl)propyl 3-methoxy-4-(trifluoromethyl)benzoate] | < 100 |
| CCn1nc(CCCOC(=O)c2ccc(Cl)cc2C(F)(F)F)c2c1C(=O)NCC1(CCOCC1)C2 [Example 84, 3-(1-ethyl-8-oxo-spiro[6,7-dihydro-4H-pyrazolo[3,4-c]azepine-5,4′-tetrahydropyran]-3-yl)propyl 4-chloro-2-(trifluoromethyl)benzoate] | < 100 |
| CCn1nc(CCCOC(=O)c2cccc(C(F)(F)F)c2Cl)c2c1C(=O)NCC1(CCOCC1)C2 [Example 85, 3-(1-ethyl-8-oxo-spiro[6,7-dihydro-4H-pyrazolo[3,4-c]azepine-5,4′-tetrahydropyran]-3-yl)propyl 2-chloro-3-(trifluoromethyl)benzoate] | < 100 |
| CCn1nc(CCCOC(=O)c2ccc(C(F)(F)F)c(Cl)c2)c2c1C(=O)NCC1(CCOCC1)C2 [Example 86, 3-(1-ethyl-8-oxo-spiro[6,7-dihydro-4H-pyrazolo[3,4-c]azepine-5,4′-tetrahydro-pyran]-3-yl)propyl 3-chloro-4-(trifluoromethyl)benzoate] | < 100 |
| CCn1nc(CCCOC(=O)c2cc(Cl)ccc2C(F)(F)F)c2c1C(=O)NCC1(CCOCC1)C2 [Example 87, 3-(1-ethyl-8-oxo-spiro[6,7-dihydro-4H-pyrazolo[3,4-c]azepine-5,4′-tetrahydro-pyran]-3-yl)propyl 5-chloro-2-(trifluoromethyl)benzoate] | < 100 |
| CCn1nc(CCCOC(=O)c2ccc(C(F)(F)F)cc2Cl)c2c1C(=O)NCC1(CCOCC1)C2 [Example 88, 3-(1-ethyl-8-oxo-spiro[6,7-dihydro-4H-pyrazolo[3,4-c]azepine-5,4′-tetrahydro-pyran]-3-yl)propyl 2-chloro-4-(trifluoromethyl)benzoate] | < 100 |
| CCn1nc(CCCOC(=O)c2ccc(Cl)c(C(F)(F)F)c2)c2c1C(=O)NCC1(CCOCC1)C2 [Example 89, 3-(1-ethyl-8-oxo-spiro[6,7-dihydro-4H-pyrazolo[3,4-c]azepine-5,4′-tetrahydro-pyran]-3-yl)propyl 4-chloro-3-(trifluoromethyl)benzoate] | < 100 |
| CCn1nc(CCCOC(=O)c2cc(Cl)cc(C(F)(F)F)c2)c2c1C(=O)NCC1(CCOCC1)C2 [Example 90, 3-(1-ethyl-8-oxo-spiro[6,7-dihydro-4H-pyrazolo[3,4-c]azepine-5,4′-tetrahydro-pyran]-3-yl)propyl 3-chloro-5-(trifluoromethyl)benzoate] | < 100 |
| CCn1nc(CCCOC(=O)c2cc(C(F)(F)F)ccc2Cl)c2c1C(=O)NCC1(CCOCC1)C2 [Example 91, 3-(1-ethyl-8-oxo-spiro[6,7-dihydro-4H-pyrazolo[3,4-c]azepine-5,4′-tetrahydro-pyran]-3-yl)propyl 2-chloro-5-(trifluoromethyl)benzoate] | < 100 |
| CCn1nc(CCCOC(=O)c2cccc(S(=O)(=O)C(C)C)c2)c2c1C(=O)NCC1(CCOCC1)C2 [Example 92, 3-(1-ethyl-8-oxo-spiro[6,7-dihydro-4H-pyrazolo[3,4-c]azepine-5,4′-tetrahydropyran]-3-yl)propyl 3-isopropylsulfonylbenzoate] | < 100 |
| CCn1nc(CCCOC(=O)c2ccc(S(=O)(=O)C(C)C)cc2)c2c1C(=O)NCC1(CCOCC1)C2 [Example 93, 3-(1-ethyl-8-oxo-spiro[6,7-dihydro-4H-pyrazolo[3,4-c]azepine-5,4′-tetrahydropyran]-3-yl)propyl 4-isopropylsulfonylbenzoate] | < 100 |
| CCn1nc(CCCOC(=O)c2ccc(S(=O)(=O)C3CCCC3)cc2)c2c1C(=O)NCC1(CCOCC1)C2 [Example 94, 3-(1-ethyl-8-oxo-spiro[6,7-dihydro-4H-pyrazolo[3,4-c]azepine-5,4′-tetrahydropyran]-3-yl)propyl 4-cyclopentylsulfonylbenzoate] | < 100 |
| CCn1nc(CCCOC(=O)c2cccc(S(=O)(=O)N3CCCC3)c2)c2c1C(=O)NCC1(CCOCC1)C2 [Example 95, 3-(1-ethyl-8-oxo-spiro[6,7-dihydro-4H-pyrazolo[3,4-c]azepine-5,4′-tetrahydro-pyran]-3-yl)propyl 3-pyrro-lidin-1-ylsulfonylbenzoate] | < 100 |
| CCn1nc(CCCOC(=O)c2ccc(S(=O)(=O)N3CCCC3)cc2)c2c1C(=O)NCC1(CCOCC1)C2 [Example 96, 3-(1-ethyl-8-oxo-spiro[6,7-dihydro-4H-pyrazolo[3,4-c]azepine-5,4′-tetrahydro-pyran]-3-yl)propyl 4-pyrro-lidin-1-ylsulfonylbenzoate] | < 100 |
| CCn1nc(CCCOC(=O)c2ccc(C(F)(F)F)cc2C(F)(F)F)c2c1C(=O)NCC1(CCOCC1)C2 [Example 97, 3-(1-ethyl-8-oxo-spiro[6,7-dihydro-4H-pyrazolo[3,4-c]azepine-5,4′-tetrahydro-pyran]-3-yl)propyl 2,4-bis(trifluoromethyl)benzoate] | < 100 |
| CCn1nc(CCCOC(=O)c2ccc(C(F)(F)F)c(C(F)(F)F)c2)c2c1C(=O)NCC1(CCOCC1)C2 [Example 98, 3-(1-ethyl-8-oxo-spiro[6,7-dihydro-4H-pyrazolo[3,4-c]azepine-5,4′-tetrahydropyran]-3-yl)propyl 3,4-bis(trifluoromethyl)benzoate] | < 100 |
| CCn1nc(CCCOC(=O)c2cccc(S(=O)(=O)N3CCOCC3)c2)c2c1C(=O)NCC1(CCOCC1)C2 [Example 99, 3-(1-ethyl-8-oxo-spiro[6,7-dihydro-4H-pyrazolo[3,4-c]azepine-5,4′-tetrahydropyran]-3-yl)propyl 3-morpholinosulfonylbenzoate] | < 100 |
| CCn1nc(CCCOC(=O)c2ccc(S(=O)(=O)N3CCOCC3)cc2)c2c1C(=O)NCC1(CCOCC1)C2 [Example 100, 3-(1-ethyl-8-oxo-spiro[6,7-dihydro-4H-pyrazolo[3,4-c]azepine-5,4′-tetrahydropyran]-3-yl)propyl 4-morpholinosulfonylbenzoate] | < 100 |
| CCn1nc(CCCOC(=O)c2cccc(S(=O)(=O)N3CCN(C(C)=O)CC3)c2)c2c1C(=O)NCC1(CCOCC1)C2 [Example 101, 3-(1-ethyl-8-oxo-spiro[6,7-dihydro-4H-pyrazolo[3,4-c]azepine-5,4′-tetrahydropyran]-3-yl)propyl 3-(4-acetylpiperazin-1-yl)sulfonylbenzoate] | < 100 |
| CCn1nc(CCCOC(=O)c2ccc(S(=O)(=O)N3CCN(C(C)=O)CC3)cc2)c2c1C(=O)NCC1(CCOCC1)C2 [Example 102, 3-(1-ethyl-8-oxo-spiro[6,7-dihydro-4H-pyrazolo[3,4-c]azepine-5,4′-tetrahydropyran]-3-yl)propyl 4-(4-acetylpiperazin-1-yl)sulfonylbenzoate] | < 100 |
| CCn1nc(CCCOC(=O)c2ccc(C(N)=O)cc2)c2c1C(=O)NCC1(CCOCC1)C2 [Example 104, 3-(1-ethyl-8-oxo-spiro[6,7-dihydro-4H-pyrazolo[3,4-c]azepine-5,4′-tetrahydropyran]-3-yl)propyl 4-carbamoylbenzoate] | < 100 |
| CCn1nc(CCCOC(=O)c2ccc(C(=O)NC)cc2)c2c1C(=O)NCC1(CCOCC1)C2 [Example 105, 3-(1-ethyl-8-oxo-spiro[6,7-dihydro-4H-pyrazolo[3,4-c]azepine-5,4′-tetrahydro-pyran]-3-yl)propyl 4-(methylcarbamoyl)benzoate] | < 100 |
